Laboratory results taken from patent publication USRE36832E, “N-heteroaryl-N'-phenylurea derivatives, their production and use” (Nihon Nohyaku Co., LTD, priority 1993, dated 2000).

Target: T1, acyl-CoA:cholesterol O-acyltransferase (ACAT) (Oryctolagus cuniculus, UniProt G1SFD9)
T1 construct: The intestinal mucosa of a white rabbit was homogenized and microsomal fraction was obtained by stepwise centrifugation; from tissue; host or cells: intestinal mucosa of white rabbit, microsomal fraction
T1 sequence (G1SFD9 1-524): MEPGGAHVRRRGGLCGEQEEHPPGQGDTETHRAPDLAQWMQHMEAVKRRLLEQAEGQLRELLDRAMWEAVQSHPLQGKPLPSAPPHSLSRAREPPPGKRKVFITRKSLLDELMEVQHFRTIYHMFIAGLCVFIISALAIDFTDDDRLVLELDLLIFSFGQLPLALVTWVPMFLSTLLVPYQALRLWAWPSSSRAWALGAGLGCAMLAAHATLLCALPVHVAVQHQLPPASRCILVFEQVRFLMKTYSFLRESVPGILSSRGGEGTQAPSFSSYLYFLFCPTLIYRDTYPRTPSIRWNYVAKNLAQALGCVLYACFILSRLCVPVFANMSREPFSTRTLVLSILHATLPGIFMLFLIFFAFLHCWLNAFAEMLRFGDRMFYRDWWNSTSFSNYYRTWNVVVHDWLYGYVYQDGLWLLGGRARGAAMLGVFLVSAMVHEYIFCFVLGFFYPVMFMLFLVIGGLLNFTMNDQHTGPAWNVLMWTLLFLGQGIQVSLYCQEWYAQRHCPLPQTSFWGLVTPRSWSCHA
Experiment: Inhibitory activity on acyl-CoA:cholesterol O-acyltransferase (ACAT), intestinal mucosa microsomal fraction, [1-14C]oleyl-CoA incorporation into cholesterol esters
Assay type: biochemical, white rabbit
Settings: read-out: Inhibition rate %
Protocol: Inhibitory activity on acyl-CoA:cholesterol Oacyltransferase (ACAT)
The enzyme used in the test was prepared according to the method of Heider et al. [J. Lipid, Res. 24, 1127 (1983)]. The intestinal mucosa of a white rabbit was homogenized and microsomal fraction was obtained by stepwise centrifugation. The microsomal fraction was suspended in 0,154M phosphate buffer (pH 0 7.4) and stored at -80° C. until use.
ACAT activity was determined by a modification of the method of Helgerud et al. [J. Lipid Res. 22, 271 (1981)] by measuring radioactivity incorporated into cholesterol esters from [1-14C]oleyl-CoA, as an indication. As to the ACAT-inhibiting activity of each compound to be tested, the inhibition rate was calculated by the following equation.

SMILES	inhibition at 0.01 µM [%]	inhibition at 1 µM [%]
CCc1cccc(CC)c1NC(=O)Nc1oc2ccc(F)cc2c1-c1ccccc1Cl [Compound 1]	49.8	
CC(C)c1cccc(C(C)C)c1NC(=O)Nc1oc2ccc(F)cc2c1-c1ccccc1Cl [Compound 2, N-[3-(2-Chlorophenyl)-5-fluorobenzofuran-2-yl]-N'-(2,6-diisopropylphenyl)urea]	58.3	
O=C(Nc1ccccc1)Nc1oc2ccc(Cl)cc2c1-c1ccccc1Cl [Compound 4, N-[5-Chloro-3-(2-chlorophenyl)benzofuran-2-yl]-N'-phenylurea]		77.9
Cc1ccccc1NC(=O)Nc1oc2ccc(Cl)cc2c1-c1ccccc1Cl [Compound 5, N-[5-Chloro-3-(2-chlorophenyl)benzofuran-2-yl]-N'-(2-methylphenyl)urea]	15.4	98.5
O=C(Nc1ccccc1C(F)(F)F)Nc1oc2ccc(Cl)cc2c1-c1ccccc1Cl [Compound 7, N-[5-Chloro-3-(2-chlorophenyl)benzofuran-2-yl]-N'-(2-trifluoromethylphenyl)urea]	37.2	99.1
COc1ccccc1NC(=O)Nc1oc2ccc(Cl)cc2c1-c1ccccc1Cl [Compound 8, N-[5-Chloro-3-(2-chlorophenyl)benzofuran-2-yl]-N'-(2-methoxyphenyl)urea]	24.9	97.4
CC(C)c1cccc(C(C)C)c1NC(=O)Nc1oc2ccc(Cl)cc2c1-c1ccccc1Cl [Compound 13, N-[5-Chloro-3-(2-chlorophenyl)benzofuran-2-yl]-N'-(2,6-diisopropylphenyl)urea]	84.9	99.4
Cc1cccc(C(C)C)c1NC(=O)Nc1oc2ccc(Cl)cc2c1-c1ccccc1Cl [Compound 15, N-[5-Chloro-3-(2-chlorophenyl)benzofuran-2-yl]-N'-(2-isopropyl-6-methylphenyl)urea]	76.8	99.4
Cc1cccc(N(C)C)c1NC(=O)Nc1oc2ccc(Cl)cc2c1-c1ccccc1Cl [Compound 19, N-[5-chloro-3-(2-chlorophenyl)benzofuran-2-yl]-N'-(2-dimethylamino-6-methylphenyl)urea]	71.3	
Cc1ccc2oc(NC(=O)Nc3c(C(C)C)cccc3C(C)C)c(-c3ccccc3Cl)c2c1 [Compound 22, N-[3-(2-Chlorophenyl)-5-methylbenzofuran-2-yl]-N'-(2,6-diisopropylphenyl)urea]	69.3	
CCc1ccc2oc(NC(=O)Nc3c(C(C)C)cccc3C(C)C)c(-c3ccccc3Cl)c2c1 [Compound 25, N-[3-(2-Chlorophenyl)-5-ethylbenzofuran-2-yl]-N'-(2,6-diisopropylphenyl)urea]	73.3	
CCc1ccc2oc(NC(=O)Nc3ccc(F)cc3F)c(-c3ccccc3Cl)c2c1 [Compound 26, N-[-3-(2-Chlorophenyl)-5-ethylbenzofuran-2-yl]-N'-(2,4-difluorophenyl)urea]	41.2	
CCCCCCc1ccc2oc(NC(=O)Nc3c(C(C)C)cccc3C(C)C)c(-c3ccccc3Cl)c2c1 [Compound 27, N-[3-(2-Chlorophenyl)-5-n-hexylbenzofuran-2-yl]-N'-(2,6-diisopropylphenyl)urea]	63.5	
COc1ccc2oc(NC(=O)Nc3c(C(C)C)cccc3C(C)C)c(-c3ccccc3Cl)c2c1 [Compound 30, N-[3-(2-Chlorophenyl)-5-methoxybenzofuran-2-yl]-N'-(2,6-diisopropylphenyl)urea]	58.4	
Cc1cc2oc(NC(=O)Nc3c(C)cccc3C)c(-c3ccccc3Cl)c2cc1C [Compound 36, N-[3-(2-Chlorophenyl)-5,6-dimethylbenzofuran-2-yl]-N'-(2,6-dimethylphenyl)urea]	37.6	98.9
Cc1cc2oc(NC(=O)Nc3c(C(C)C)cccc3C(C)C)c(-c3ccccc3Cl)c2cc1C [Compound 38, N-[3-(2-Chlorophenyl)-5,6-dimethylbenzofuran-2-yl]-N'-(2,6-diisopropylphenyl)urea]	77.2	99.5
Cc1cc2oc(NC(=O)Nc3c(C)cccc3C(C)C)c(-c3ccccc3Cl)c2cc1C [Compound 39]	70.9	99.4

SMILES	inhibition at 0.01 µM [%]	inhibition at 1 µM [%]
Cc1cc(C)c2oc(NC(=O)Nc3c(C(C)C)cccc3C(C)C)c(-c3ccccc3Cl)c2c1 [Compound 43, N-[3-(2-Chlorophenyl)-5,7-dimethylbenzofuran-2-yl]-N'-(2,6-diisopropylphenyl)urea]	52.1	99.5
Cc1cc(C)c(NC(=O)Nc2oc3c(C)cc(C)cc3c2-c2ccccc2Cl)c(C)c1 [Compound 45, N-[3-(2-Chlorophenyl)-5,7-dimethylbenzofuran-2-yl]-N'-(2,4,6-trimethylphenyl)urea]		94
Cc1cc(C)c2oc(NC(=O)Nc3ccc(F)cc3F)c(-c3ccccc3Cl)c2c1 [Compound 46, N-[3-(2-Chlorophenyl)-5,7-dimethylbenzofuran-2-yl]-N'-(2,4-difluorophenyl)urea]		92.7
Cc1cc(C)c2oc(NC(=O)Nc3c(F)cccc3F)c(-c3ccccc3Cl)c2c1 [Compound 47, N-[3-(2-Chlorophenyl)-5,7-dimethylbenzofuran-2-yl]-N'-(2,6-difluorophenyl)urea]		93
Cc1cc(C)c2oc(NC(=O)Nc3c(F)cc(F)cc3F)c(-c3ccccc3Cl)c2c1 [Compound 48, N-[3-(2-Chlorophenyl)-5,7-dimethylbenzofuran-2-yl]-N'-(2,4,6-trifluorophenyl)urea]	6.8	95.6
Cc1cc(C)c2oc(NC(=O)Nc3c(Cl)cccc3Cl)c(-c3ccccc3Cl)c2c1 [Compound 49, N-[3-(2-Chlorophenyl)-5,7-dimethylbenzofuran-2-yl]-N'-(2,6-dichlorophenyl)urea]	51.9	99.1
CC(C)c1cccc(C(C)C)c1NC(=O)Nc1oc2cc3c(cc2c1-c1ccccc1Cl)CCC3 [Compound 53, N-[3-(2-Chlorophenyl)-6,7-dihydro-5H-cyclopenta[f]benzofuran-2-yl]-N'-(2,6-diisopropylphenyl)urea]	43.7	
O=C(Nc1ccc(F)cc1F)Nc1oc2cc3c(cc2c1-c1ccccc1Cl)CCC3 [Compound 55, N-[3-(2-Chlorophenyl)-6,7-dihydro-5H-cyclopenta[f]benzofuran-2-yl]-N'-(2,4-difluorophenyl)urea]	32.1	
CC(C)c1cccc(C(C)C)c1NC(=O)Nc1oc2ccc(Cl)cc2c1-c1ccccc1F [Compound 58, N-[5-Chloro-3-(2-fluorophenyl)benzofuran-2-yl]-N'-(2,6-diisopropylphenyl)urea]	69.2	
CCc1cccc(CC)c1NC(=O)Nc1oc2ccc(Cl)cc2c1-c1ccccc1C [Compound 60, N-[5-Chloro-3-(2-methylphenyl)benzofuran-2-yl]-N'-(2,6-diethylphenyl)urea]	82.6	
Cc1ccccc1-c1c(NC(=O)Nc2c(C(C)C)cccc2C(C)C)oc2ccc(Cl)cc12 [Compound 61, N-[5-Chloro-3-(2-methylphenyl)benzofuran-2-yl]-N'-(2,6-diisopropylphenyl)urea]	65.6	
CCc1cccc(CC)c1NC(=O)Nc1oc2ccc(Cl)cc2c1-c1ccccc1SC [Compound 62, N-[5-Chloro-3-(2-methylthiophenyl)benzofuran-2-yl]-N'-(2,6-diethylphenyl)urea]	91.6	
CSc1ccccc1-c1c(NC(=O)Nc2c(C(C)C)cccc2C(C)C)oc2ccc(Cl)cc12 [Compound 63, N-[5-Chloro-3-(2-methylthiophenyl)benzofuran-2-yl]-N'-(2,6-diisopropylphenyl)urea]	72.1	
CCc1cccc(CC)c1NC(=O)Nc1sc2ccc(Cl)cc2c1-c1ccccc1Cl [Compound 65, N-[5-Chloro-3-(2-chlorophenyl)-1-benzothiophen-2-yl]-N'-(2,6-diethylphenyl)urea]	56.5	99.1
CCc1cccc(CC)c1NC(=O)Nc1sc2ccc(C)cc2c1-c1ccccc1Cl [Compound 72, N-[3-(2-Chlorophenyl)-5-methyl-1-benzothiophen-2-yl]-N'-(2,6-diethylphenyl)urea]	60.6	
CCc1cccc(CC)c1NC(=O)Nc1sc2ccc(C(C)C)cc2c1-c1ccccc1Cl [Compound 76, N-[3-(2-Chlorophenyl)-5-isopropyl-1-benzothiophen-2-yl]-N'-(2,6-diethylphenyl)urea]	71	
CC(C)c1ccc2sc(NC(=O)Nc3c(C(C)C)cccc3C(C)C)c(-c3ccccc3Cl)c2c1 [Compound 77, N-[3-(2-chlorophenyl)-5-isopropyl-1-benzothiophen-2-yl]-N'-(2,6-diisopropylphenyl)urea]	51.7	
